These results are taken from patent publication US8507219B2, “Method of treating inflammation with statins” (MUSC Foundation for Research Development, priority 1997, dated 2013).

One experiment deals with iNOS. The experiment in a line: Expression of iNOS protein (immunoblot) and mRNA (Northern) in rat primary astrocytes. The class given is cell-based. On the procedure:
Immunoblot analysis for iNOS Following 24 h incubation in the presence or absence of stimuli by different cytokines or LPS, macrophages were scraped off, washed with Hank's buffer, and homogenized in 50 mM Tris-HCl (pH 7.4) containing protease inhibitors ([…] PMSF, 5 μg/ml aprotinin, 5 μg/ml pepstatin A, and 5 μg/ml leupeptin). After electrophoresis the proteins were transferred onto a nitrocellulose membrane, and the iNOS band was visualized by immunoblotting with antibodies against mouse macrophage iNOS and [^125I]-labeled protein A (Singh et al., 1988).
RNA isolation, Northern blot analysis, and reverse-transcriptase coupled polymerase chain reaction (RT-PCR) Stimulated peritoneal macrophages were taken out from culture dishes directly by adding Ultraspec-II RNA reagent (Biotecx Laboratories Inc.) and total RNA was isolated according to the manufacturer's protocol. For northern blot analyses, 20 μg of total RNA was electrophoresed on 1.2% denaturing formaldehyde-agarose gels, electrotransferred to Hybond-Nylon Membrane (Amersham) and hybridized at 68° C. with ^32P-labeled cDNA probe using Express Hyb hybridization solution (Clontech) as described by the manufacturer. […]; After hybridization filters were washed two to three times in solution I (2×SSC, 0.05% SDS) for 1 h at room temperature followed by solution II (0.1×SSC, 0.1% SDS) at 50° C. for another hour. The membranes were then dried and exposed to X-ray film (Kodak). The same filters were stripped and rehybridized with probes for GAPDH. The relative mRNA content for iNOS was measured after scanning the bands with a Biorad (Model GS-670) imaging densitometer.
Immunoblot analysis for iNOS Following 24 h incubation in the presence or absence of different stimuli, cells were scraped off, washed with Hank's buffer, and homogenized in 50 mM Tris-HCl (pH 7.4) containing protease inhibitors. After electrophoresis the proteins were transferred onto a nitrocellulose membrane, and the iNOS band was visualized by immunoblotting with antibodies against mouse macrophage iNOS and [^125I]-labeled protein A.
RNA isolation and Northern blot analysis Cells were taken out from culture dishes directly by adding Ultraspec-II RNA reagent (Biotecx Laboratories Inc.) and total RNA was isolated according to the manufacturer's protocol. For Northern blot analyses, 20 μg of total RNA was electrophoresed on 1.2% denaturing formaldehyde-agarose gels, electrotransferred to Hybond-Nylon Membrane (Amersham) and hybridized at 68° C. with ^32P-labeled cDNA probe using Express Hyb hybridization solution (Clontech) as described by the manufacturer. […]; After hybridization filters were washed two or three times in solution I (2×SSC, 0.05% SDS) for one hour at room temperature followed by solution II (0.1×SSC, 0.1% SDS) at 50° C. for another hour. The membranes were then dried and exposed with X-ray films (Kodak). The same filters were stripped and rehybridized with probes for GAPDH. The relative mRNA content for iNOS was measured after scanning the bands with a Biorad (Model GS-670) imaging densitometer.
Immunoblot analysis for iNOS After a 24 h incubation in the presence or absence of different stimuli, cells were scraped off, washed with Hank's buffer, and homogenized in 50 mM Tris-HCl (pH 7.4) containing protease inhibitors (1 mM PMSF, 5 μg/ml aprotinin, 5 μg/ml pepstatin A, and 5 μg/ml leupeptin). After electrophoresis the proteins were transferred onto a nitrocellulose membrane, and the iNOS band was visualized by immunoblotting with antibodies against mouse macrophage iNOS and [^125I]-labeled protein A.
RNA isolation and Northern blot analysis Cells were taken out from culture dishes directly by adding Ultraspec-II RNA reagent (Biotecx Laboratories Inc., Houston, Tex.), and total RNA was isolated according to the manufacturer's protocol. […]

Experiment [1] concerns NO production in rat resident macrophages. The experiment can be described thus: LPS-/cytokine-induced NO production (nitrite) in rat resident peritoneal macrophages. It is filed as cell-based. On the procedure: Isolation of Rat Macrophages and Induction of NO Production Resident macrophages were obtained from rats by peritoneal lavage with sterile RPMI 1640 medium containing 1% fetal bovine serum and 100 μg/ml gentamicin (Wang et al., 1995). Cells were washed three times with RPMI 1640 at 4° C. All cell cultures were maintained at 37° C. in a humidified incubator containing 5% CO2 in air. Macrophages, at a concentration of 2×10^6/ml in RPMI 1640 medium containing L-glutamine and gentamicin, were added in volumes of 800 μl to a 35 mm plate. After 1 h, nonadherent cells were removed by washing and 800 μl of serum-free RPMI 1640 medium with various stimuli were added to the adherent cells. After 24 h incubation in 5% CO2 in air at 37° C., the culture supernatants were transferred to measure NO production (Geng et al., 1995; Wang et al., 1995).
Isolation of rat macrophages and induction of NO production Resident macrophages were obtained from rat by peritoneal lavage with sterile RPMI 1640 medium containing 1% fetal bovine serum and 100 μg/ml gentamicin as described herein. Cells were washed three times with RPMI 1640 at 4° C. All cell cultures were maintained at 37° C. in a humidified incubator containing 5% CO2 in air. Macrophages at a concentration of 2×10^6/ml in RPMI 1640 medium containing L-glutamine and gentamicin were added in volumes of 800 μl to a 35 mm plate. After 1 h, nonadherent cells were removed by washing and 800 μl of serum-free RPMI 1640 medium with various stimuli were added to the adherent cells. After incubation in 5% CO2 in air at 37° C., culture supernatants were transferred to measure NO production.
Isolation of rat macrophages and induction of NO production Resident macrophages were obtained from rat by peritoneal lavage with sterile RPMI 1640 medium containing 1% FBS and 100 μg/ml gentamicin. Cells were washed three times with RPMI 1640 at 4° C., and were maintained at 37° C. in a humidified incubator containing 5% CO2 in air. Macrophages at a concentration of […] in RPMI 1640 medium containing L-glutamine and gentamicin were added in volumes of 800 μl to a 35-mm plate. After 1 h, nonadherent cells were removed by washing, and 800 μl of serum-free RPMI 1640 medium with various stimuli was added to the adherent cells. After 24 h the culture supernatants were transferred to measure NO production.
Protein was measured (Bradford, 1976).

Experiment [2] relates to ceramide production in rat primary astrocytes. The experiment in a line: Degradation of sphingomyelin to ceramide (DAG kinase assay, HPTLC) in rat primary astrocytes. It is filed as cell-based. On the procedure: Lipid extraction Approximately 1.0×10^6 cells were exposed to different cytokines in the presence or absence of antioxidants for different periods and lipids were extracted according to the methods described by Welsh (1996).
Quantification of sphingomyelin by HPTLC and densitometry Sphingomyelin was separated from total lipid extracts by HPTLC (LPK-plates from Whatman Labsales, USA) as described (Ganser et al., 1988) for phospholipids with the modification, that the plate was overrun for 30 min during its development and was dried overnight in vacuum desicator. Sphingomyelin was quantitated by densitometric scanning using Imaging Densitometer (Model GS-670; Bio-Rad, USA) and software provided with the instrument by the manufacturer.
Quantification of ceramide levels by diacylglycerol kinase assay Ceramide content was quantified essentially according to Priess et al. using diacylglycerol (DAG) kinase and [γ-^32P]ATP (Priess et al., 1986). Briefly, dried lipids were solubilized in 20 μl of an octyl β-D-glucoside/cardiolipin solution (7.5% octyl β-D-glucoside, 5 mM cardiolipin in 1 mM DTPA) by sonication in a sonicator bath. […] The labeled ceramide 1-phosphate was resolved with a solvent system consisting of methyl acetate: n-propanol:chloroform:methanol:0.25% KCl in water:acetic-acid (100:100:100:40:36:2). A standard sample of ceramide was phosphorylated under identical conditions and developed in parallel. […] Quantification of ceramide 1-phosphate was carried out by autoradiography and densitometric scanning using Imaging Densitometer (Model GS-670; Bio-Rad, USA). Values are expressed either as arbitrary units (absorbance) or as percent change.
Lipid Extraction Approximately 1.0×10^6 cells were exposed to different cytokines in the presence or absence of antioxidants for different periods, and lipids were extracted according to the methods described by Welsh (1996).
Quantification of Sphingomyelin by High Performance TLC and Densitometry Sphingomyelin was separated from total lipid extracts by high performance TLC (LHPK plates from Whatman) as described by Ganser et al. (1988) for phospholipids with the following modification: the plate was overrun for 30 min during its development and was dried overnight in vacuum desiccator. Sphingomyelin was quantitated by densitometric scanning using Imaging Densitometer (model GS-670; Bio-Rad), and software was provided with the instrument by the manufacturer.
Quantification of Ceramide Levels by Diacylglycerol Kinase Assay Ceramide content was quantified essentially according to Priess et al. (1986) using diacylglycerol (DAG) kinase and [γ-^32P]ATP. Briefly, dried lipids were solubilized in 20 μl of an octyl β-D-glucoside/cardiolipin solution (7.5% octyl β-D-glucoside, 5 mM cardiolipin in 1 mM DTPA) by sonication in a sonicator bath. […] The labeled ceramide-1-phosphate was resolved with a solvent system consisting of methyl acetate:n-propyl alcohol:chloroform:methanol, 0.25% KCl in water:acetic acid (100:100:100:40:36:2). A standard sample of ceramide was phosphorylated under identical conditions and developed in parallel. […] Quantification of ceramide-1-phosphate was carried out by autoradiography and densitometric scanning using Imaging Densitometer (model GS-670; Bio-Rad). Values are expressed either as arbitrary units (absorbance) or as percent change.

For experiment [3], the system named is cultured skin fibroblasts of X-ALD. The experiment can be described thus: β-oxidation of lignoceric acid in cultured skin fibroblasts of X-ALD. The class given is cell-based, human. The settings on record: etomoxir, inhibitor of mitochondrial β-oxidation.
Setting [4] is: 100 μM mevalonate, 200 μM farnesyl pyrophosphate, 10 μM ubiquinone or cholesterol.

“Also recorded” adds a separate entry of the source. Read-outs that look alike come from different tables or passages of the source.

For `C[C@@]12C(=O)OC(=O)[C@]1(C)[C@H]1CC[C@@H]2O1` [cantharidin], in the experiment on iNOS (LPS 1.0 μg/ml), the “LPS-mediated induction of iNOS protein and mRNA” value was “enhanced the LPS-mediated induction of iNOS protein and mRNA”. Moreover, the “LPS-induced NO production” value in experiment [1] (LPS 1.0 μg/ml, 24 h) was “inhibited the LPS-induced NO production in rat peritoneal macrophages”. Take `CC(=O)O` [acetate]: in experiment [2], the “degradation of sphingomyelin to ceramide / ceramide production” value was “had no effect on the degradation of SM to ceramide”. Regarding `COC1=C(OC)C(=O)C(C/C=C(\C)CC/C=C(\C)CC/C=C(\C)CC/C=C(\C)CC/C=C(\C)CC/C=C(\C)CC/C=C(\C)CC/C=C(\C)CC/C=C(\C)CCC=C(C)C)=C(C)C1=O` [ubiquinone], the “rescue of the inhibition of iNOS expression and NF-kβ activation by lovastatin / NaPA” value (“rescue of the inhibition … by lovastatin / NaPA” below) in the experiment on iNOS (setting [4]) is “did not prevent the inhibitory effect of lovastatin and NaPA”. Consider `CC(C)CCC[C@@H](C)[C@H]1CC[C@H]2[C@@H]3CC=C4C[C@@H](O)CC[C@]4(C)[C@H]3CC[C@]12C` [cholesterol], for which the “rescue of the inhibition … by lovastatin / NaPA” value in the experiment on iNOS (setting [4]) is “did not prevent the inhibitory effect of lovastatin and NaPA”. With `CNC(=N)NCCC[C@H](N)C(=O)O` [L-NMA, N^G-methyl-L-arginine], in experiment [1] (LPS 1.0 μg/ml, 24 h, NAC 20 mM 2 h before LPS, NMA 0.1 mM, arginase 100 units/ml with LPS), the Nitrite was 15.8 ± 2.2 nmol/mg Protein^24h. For the same molecule, the “Inhibition (%)” value in experiment [1] (of LPS (1.0 μg/ml)-induced nitrite, NAC 20 mM 2 h before, NMA 0.1 mM, arginase 100 units/ml with LPS) is on record as 87%. In the case of `CCCCS(=N)(=O)CCC(N)C(=O)O` [buthione (S,R)-sulfoximine], in experiment [2], the “degradation of sphingomyelin to ceramide / ceramide production” value is “also decreased the level of GSH and induced the production of ceramide”. `CC(O)(CCO)CC(=O)O` (centres unmarked) [mevalonate]: in the experiment on iNOS, the “rescue of the inhibition … by lovastatin / NaPA” value was “substantially reversed the inhibitory effect of lovastatin”. In the case of `CCOC(=O)[C@@]1(CCCCCCOc2ccc(Cl)cc2)CO1` [Etomoxir], the “effect on stimulated lignoceric acid β-oxidation” value in experiment [3] is listed as “had no effect on cAMP-mediated stimulation of lignoceric acid β-oxidation; also recorded: had no effect on lovastatin- or NaPA-mediated stimulation of lignoceric acid β-oxidation”. For `OO` [H2O2, hydrogen peroxide], the “increase in ceramide production” value in experiment [2] was “about 7 fold”. Regarding `CC(C)=CCC/C(C)=C/CC/C(C)=C/COP(=O)(O)OP(=O)(O)O` [FPP, farnesyl pyrophosphate], the “rescue of the inhibition … by lovastatin / NaPA” value in the experiment on iNOS is on record as “substantially reversed the inhibitory effect of lovastatin”. For the molecule Microcystin, in the experiment with iNOS, the “LPS-mediated induction of iNOS protein and mRNA” value is “enhanced the LPS-mediated induction of iNOS protein and mRNA”. As to `Nc1nc[nH]n1` [ATZ, aminotriazole], the “increase in ceramide production” value in experiment [2] is on record as “more than 5 fold”.
